Results published in patent US20220195384A1, “COMPOSITION FOR PROMOTING PRODUCTION OF STEM CELL-DERIVED EXOSOMES AND INCREASING STEMNESS” (BREXOGEN INC., priority 2019, published 2022).

Tested on: primary umbilical cord-derived mesenchymal stem cells
Test: Stem cell stemness: colony formation (CFU-F, crystal violet) after pretreatment
Assay type: cell-based
Details: 10 ng/mL interferon-γ pretreatment one week
Experimental: (§1) In a culture medium [high glucose DMEM (Gibco, Cat no. 11995-065); 10% fetal bovine serum (HyClone), 1% MEM non-essential amino acids solution (100×) (Gibco, Cat no. 11140-050)] containing 20 nM of exendin-4, primary umbilical cord-derived mesenchymal stem cells (ATCC No. PCS-500-010; Lot No. 63822428) were cultured for one week.
as §1, with “10” for “20”, “PMA,” for “exendin-4,”
as §1, with “10 ng/mL interferon-γ,” for “20 nM of exendin-4,”
as §1, with “10 μM” for “20 nM”, “tetrandrine,” for “exendin-4,”
as §1, with “10 μg/mL hyaluronic acid,” for “20 nM of exendin-4,”
as §1, with “30” for “20”, “substance P,” for “exendin-4,”
as §1, with “10” for “20”, “resveratrol,” for “exendin-4,”
as §1, with “10 μM” for “20 nM”, “lanifibranor,” for “exendin-4,”
Mesenchymal stem cells and the exendin-4-pretreated mesenchymal stem cells of the Example were each seeded at a density of 1,000 cells/dish into 100-mm cell culture dishes containing […] of a culture medium [high glucose DMEM (Gibco, Cat no. 11995-065), 10% fetal bovine serum (HyClone), 1% MEM non-essential amino acids solution (100×) (Gibco, Cat no. 11140-050)] per dish and cultured for 21 days. The cell-attached dishes were washed twice with PBS, followed by fixation with 95% methanol at room temperature for about 2 min. The fixed cells were washed three times with PBS and stained with 0.5% crystal violet [(sigma, C-3886, USA) […], methanol 100 ml] for 5 min. After water washing and drying at room temperature, colonies, each composed of 50 or more cells, were counted for comparison.
Mesenchymal stem cells and the PMA-pretreated mesenchymal stem cells of the Example were each seeded at a density of 1,000 cells/dish into 100-mm cell culture dishes containing […] of a culture medium [high glucose DMEM (Gibco, Cat no. 11995-065), 10% fetal bovine serum (HyClone), 1% MEM non-essential amino acids solution (100×) (Gibco, Cat no. 11140-050)] per dish and cultured for 21 days. The cell-attached dishes were washed twice with PBS, followed by fixation with 95% methanol at room temperature for about 2 min. […]

interferon-γ [IFNγ MSC-Exo = exosomes of IFNγ-treated mesenchymal stem cells]
colonies formed (each 50 or more cells) (1,000 cells/dish, 21 days, non-treated 28.6): 136 colonies | CFU-F increase (vs non-treated): about 476%
